Reference: PubChem BioAssay AID179 (DTP/NCI, 2004)
Activity calls are given as the source filed them.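 How the source made its calls: active means compounds giving half or more protection of infected cells from virus-caused growth loss, again on retest; inactive means the rest.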

Test system: CEM cells HIV-1 protection, formazan growth assay
Assay: NCI AIDS Antiviral Assay
Settings: for IC50: measured here: growth of uninfected CEM cells
Procedure, shortened: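 CEM (human) cells, HIV-1 infected vs uninfected, 5-point dosing, formazan growth read-out. Retest threshold 50% protection.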

Structure (SMILES)	EC50 [µM]	IC50 [µM]	outcome
CC1CC(=O)Nc2ccc(N=NN(C)C)cc2N1C=O (stereo not drawn)	> 200	> 200	–
O=C(O)c1cc2ccccc2c(N=Nc2ccc(S(=O)(=O)Nc3nccs3)cc2)c1O	> 200	155	–
C[C@@H](NC(=O)c1ccccc1SC(=O)OCCCCCl)C(N)=O	2.4	195	–
O=[N+]([O-])O	> 200	> 200	–
COC1/C=C/OC2(C)Oc3c(C)c(O)c4c(O)c(c(/C=N/NC5C6CC7CC(C6)CC5C7)c(O)c4c3C2=O)NC(=O)/C(C)=C/C=C/C(C)C(O)C(C)C(O)C(C)C(OC(C)=O)C1C (stereo not drawn)	> 200	9.12	–
Cc1cc(Cl)ccc1N1C(=O)C(=O)C(c2nc3ccccc3s2)/C(=N\NC(=O)c2ccccc2O)C1=O (stereo not drawn)	> 25.7	> 25.7	–
NCCS	> 1410	525	–
CC(O[Si](c1ccccc1)(c1ccccc1)C(C)(C)C)[C@H](NC(=O)OC(C)(C)C)C(=O)O (stereo partly drawn)	> 40.7	> 40.7	–
CC(=O)OCCCCN1C(=O)CSc2ccccc21	> 200	> 200	–
CCOC(=O)/C=C1\CONC(c2ccc(OC)cc2)=N1	> 19.1	> 19.1	–
CC(=O)Oc1cc(OC(C)=O)c2c(c1)OC(c1ccc(OC(C)=O)c(OC(C)=O)c1)CC2=O (stereo not drawn)	> 57.5	> 57.5	–
Cc1ccc(S(=O)(=O)c2ccccc2[N+](=O)[O-])cc1	14.5	81.3	–
O=C(CC1=Nc2nnc(CCCCCCCc3nnc4n3C(=O)C(CC(=O)c3ccccc3)=N4)n2C1=O)c1ccccc1	> 1.82	> 1.82	–
Cc1nnnn1[C@H]1C(C#N)CC2[C@@H]3CCC4=Cc5nnnn5CC[C@]4(C)C3CC[C@@]21C (stereo partly drawn)	> 85.1	> 85.1	–
CCOC(=O)c1c(-c2[nH]c(C(=O)OCc3ccccc3)c(C)c2C(=O)OCC)[nH]c(C(=O)OCc2ccccc2)c1C	–	–	inactive
O=c1[nH]cnc2c1ncn2[C@@H]1C[C@@H]1CO	> 200	> 200	–
CC(C)CC(F)(C(N)=O)C(N)=O	> 200	> 200	–
N#CC1C(=O)NC(=O)C(C#N)C12CCCC(C(F)(F)F)C2 (stereo not drawn)	> 200	> 200	–
O=C1CCC2=C(CCC2)N1CCc1ccc2c(c1)OCO2	–	–	inactive
Clc1ccc(Nc2nnc(CNc3ccc(-c4nnc(Nc5ccc(Cl)cc5)o4)cc3)o2)cc1	> 200	1.23	–
COc1cc(Cc2cnc(N)nc2N)cc(OC)c1OC	> 200	> 200	–
CCOC(=O)CN(c1sc(C)c(-c2ccccc2)c1C(=O)OCC)S(=O)(=O)c1ccc(C)cc1	> 200	5.13	–

Structure (SMILES)	EC50 [µM]	IC50 [µM]	outcome
O=C(Cc1csc(N=Nc2c(O)[nH]c3ccccc23)n1)Nc1ccccc1	> 200	112	–
N#C/C(=C\N1CC(=O)NC1=S)c1nc2ccccc2s1	–	–	inactive
CC1(c2ccc(Cl)cc2)OC(=O)c2c1ccc1ccccc21 (stereo not drawn)	–	–	inactive
O=C(Cc1ccccc1)NCCCN(CCCCN(CCCNC(=O)Cc1ccccc1)C(=O)OCc1ccccc1)C(=O)OCc1ccccc1	–	–	inactive
CC(=O)/C(=C(/Br)I)c1ccccc1	–	–	inactive
Cc1ccc(-c2nc3ccccc3c(=O)n2NCC2(O)OCC(O)C(O)C2O)cc1 (stereo not drawn)	–	–	inactive
COc1ccc2c(NCCCCCCNc3c4ccccc4nc4cc(OC)ccc34)c3ccccc3nc2c1	–	–	inactive
S=C(N1CC1)N1CC1	> 200	42.7	–
CN1CCC/C1=N\c1scc(-c2ccc(Br)cc2)[n+]1-c1ccccc1	> 38	5.75	–
C/C(=N/NC(=S)N1CCN(C(=S)N/N=C(/C)c2ccccn2)CC1)c1ccccn1	> 200	3.98	–
CC(C)(C)N1COCO[C@H]2CCC[C@@H]21	> 525	186	–
O=S1(=O)CCCCS1	> 200	5.37	–
CCOC(=O)C(C)(C)Oc1ccc2c(C)c(-c3ccc(Cl)cc3)c(=O)oc2c1	> 12.9	> 12.9	–
O=c1n(-c2ccccc2)c(=O)n2n1C1C=CC2C2C(C1)C2(Cl)Cl (stereo not drawn)	–	–	inactive
C=CCOC1(CC=C)C(=O)OC2C(O)COC21O (stereo not drawn)	> 200	> 200	–
CCOC(=O)N1CC2(C)C=CC1C(C(=O)OC)C2 (stereo not drawn)	> 200	> 200	–
CCOC(=O)C(=CNC(=S)Nc1ccc(OCC)cc1)C(=O)OCC	> 200	112	–
CC(C)C1=CC23CCC4C(C)(C(=O)O)CCCC4(C)C2CC1C1C(=O)N(c2ccc(C(=O)O)cc2)C(=O)C13 (stereo not drawn)	> 45.7	> 45.7	–
COC(=O)CC1CCC(c2ccn(S(=O)(=O)c3ccccc3)c2)=NO1 (stereo not drawn)	> 200	> 200	–
CC(C)C1=CC2=C(C(=O)C1=O)C13CCCC(C)(C)C1CC2OC3=O (stereo not drawn)	> 79.4	28.2	–
O=c1[nH]nc(-c2ccc([N+](=O)[O-])cc2)n1/N=C/c1ccc([N+](=O)[O-])cc1	> 200	132	–
c1ccc2c(c1)cc1c3[nH]c4ccccc4c3ccn21	> 200	6.76	–

Structure (SMILES)	EC50 [µM]	IC50 [µM]	outcome
CCC(=O)OC1CCn2c1nc1c2C(=O)C(C)=C(NC(C)=O)C1=O (stereo not drawn)	> 200	1.23	–
COc1ccc(CSCc2cc(OC)c(OC)c(OC)c2)cc1	> 200	25.7	–
CC1=N/C(=C\c2ccc(/C=C3/N=C(C)OC3=O)cc2)C(=O)O1	> 851	46.8	–
CCNc1ccc(-c2ccccc2)nc1N1CCN(C(=O)c2cc3cc(OC)ccc3[nH]2)CC1	> 200	24	–
CC(C)CCCC(C)[C@H]1CC[C@H]2[C@@H]3CC[C@H]4C[C@@H](CCC=C(c5cc(Cl)c(O)c(C(=O)O)c5)c5cc(Cl)c(O)c(C(=O)O)c5)CC[C@]4(C)[C@H]3CC[C@]12C (stereo partly drawn)	60.3	129	–
CC(C)Cn1cnnc1NS(=O)(=O)c1cc(C(=O)NN)c(Cl)cc1S	> 200	> 200	–
Cc1ccc(C(C)C)c(OP(=S)(S)Oc2cc(C)ccc2C(C)C)c1	> 200	4.17	–
Cc1ccc(S[C@@H](C)[C@@](O)(C(N)=O)c2ccccc2)cc1	> 200	30.2	–
O=C1NC2CCCCCC2C12CCCCC2 (stereo not drawn)	–	–	inactive
C=CCN1CCC(O)(c2cc(C(=O)OCC)[nH]c2-c2cc(C)no2)C1 (stereo not drawn)	> 200	> 200	–
CC1=NN2C(=O)C(c3ccccc3)SC2=NC(C)(C)C1 (stereo not drawn)	> 457	> 457	–
Cc1ccc(S(=O)(=O)N/N=C2\CC3C4CCC3C2C4)cc1 (stereo not drawn)	> 200	> 200	–
O=C1c2n[nH]nc2C(=O)c2n[nH]nc21	> 200	> 200	–
C=C1CC(C)(COc2ccc3c(C)c(C)c(=O)oc3c2C)OC1=O (stereo not drawn)	> 2	0.891	–
OCC1OC2NC(=S)OC2C(O)C1O (stereo not drawn)	> 200	> 200	–
COc1cc2c(c(OC)c1)C(C)=NC(C)C2 (stereo not drawn)	> 200	141	–
CCOC(=O)CCC(NC(=O)C(CCC(=O)OCC)NC(=O)C(Cc1ccc([N+](=O)[O-])cc1)NC(C)=O)C(=O)NNC(=O)OC(C)(C)C (stereo not drawn)	> 200	> 200	–
CCCNP(=S)(NCCC)NCCC	> 200	> 200	–
CC(=O)C1C(=O)NC(=O)C1=O (stereo not drawn)	> 1620	> 1620	–
O=C(O)/C=C/c1ccc(/C=C/C(=O)O)cc1	> 200	> 200	–
